Laboratory results taken from article PMC11211886 (Frontiers in Pharmacology, 2024).
Like-named read-outs stand apart in the source and are kept apart here.

Columns and labels:
[1] = Single-dose PK in SD rats (IV/PO); parameters: species or system SD rat; conditions: in vivo
Source text: For the single-dose PK study, twenty-four rats were divided into four groups, with six rats (male: female = 1:1) in each group.

[2] = Caco-2 bidirectional transport permeability; type: in vitro ADME, human; conditions: human
Procedure: (§1) The passage number of cells used in this study was 39. Non-specific binding to the device surfaces and the aqueous solubility of test compounds were tested before the transport experiment. […] The integrity of the monolayer was estimated by measuring transepithelial electrical resistance (TEER). Only the monolayers with TEER over 150 Ω were used for the studies.

Caco-2 cell monolayers = assay: Caco-2 bidirectional transport permeability; type: in vitro ADME, human
Procedure: as §1

[3] = Whole blood-to-plasma partition, dog blood; type: in vitro ADME
Procedure: The whole blood and plasma samples were incubated at 37°C for up to 1 h. Serial samples (150 µL) were collected at different time points (0, 10, and 60 min) and transferred into new tubes. The whole blood samples were then centrifuged at 1700 g for 15 min to harvest plasma.

CYP3A4 = assay: CYP induction in human hepatocytes, CYP3A4 enzyme activity; type: in vitro ADME
Procedure: […] […] […] Enzyme activity for each CYP isoform was reported as a fold change over vehicle control and the percent of positive control (detailed calculation in Supplementary 1.1). Hepatocytes were harvested with a lysis buffer from RNeasy 96 Kit (Qiagen Inc., Germantown, MD, USA) to isolate RNA, which was analyzed by real-time quantitative polymerase chain reaction (RT-PCR). […] Emax (the maximal observed induction) and EC50 (the concentration that supports half-maximal induction) were estimated by non-linear regression of fold increase in CYP mRNA expression versus concentration plots.
The fold of vehicle control and the percent of positive control were calculated with the formulas below:
Fold of vehicle control = CYPs activity of test compound (or positive control) treated sample / CYPs activity of vehicle control treated sample
% of positive control = [(fold change in treated sample)-1] / [(fold change in positive control)-1] × 100

MATE2-K = MATE2-K (Homo sapiens, UniProt Q86VL8); assay: MATE2-K inhibition, tetraethylammonium uptake in transfected HEK293 cells; conditions: for Percentage transported / Uptake rate: MATE2-K
Procedure: The pre-incubation solutions were removed, and incubation solutions containing the inhibitors and probe substrates (or transport buffer containing an equal volume of vehicle control and probe substrates) were added and incubated at 37°C for 2 min (5 min for OATP1B3). The probe substrate for OAT1 was 4-aminohippuric acid (10 μM), for OAT3 was estrone 3-sulfate (10 μM), for OCT2 was metformin (100 μM), for OATP1B1 was β-estradiol 17-(β-D-glucuronide) (5 μM), for OATP1B3 was β-estradiol 17-(β-D-glucuronide) (10 μM), and for MATE1 and MATE2-K was tetraethylammonium (10 μM). After incubation, cells were washed three times with ice-cold transport buffer (25 mM HEPES, pH 7.4, pH 8.0 for overexpressing MATE1 and MATE2-K HEK293 cells) and lysed in distilled water. The concentrations of probe substrates were determined by LC-MS/MS, and a BCA Kit (Solarbio ®Life Sciences, Beijing, China) was used to determine the protein content in the cell lysate.
where C is the concentration of the drug in the cell lysate (nM), P is the protein concentration of the cell lysate (mg/mL), and T is the incubation time (minute). Uptake ratetest compound is the uptake rate of the substrate in the presence of the test compound. Uptake ratevehicle control is the uptake rate of the substrate in the presence of the vehicle control. Uptake ratepassive is the uptake rate of the substrate in the presence of the positive inhibitor at the top test concentration.

[4] = cited from earlier work
[5] = both sexes, SD, rat, iv, 5 mg/kg
[6] = both sexes, SD, rat, po, 1 mg/kg
[7] = both sexes, SD, rat, po, 5 mg/kg
[8] = both sexes, SD, rat, po, 25 mg/kg

Sequence of MATE2-K (Q86VL8 1-566 isoform Q86VL8-3): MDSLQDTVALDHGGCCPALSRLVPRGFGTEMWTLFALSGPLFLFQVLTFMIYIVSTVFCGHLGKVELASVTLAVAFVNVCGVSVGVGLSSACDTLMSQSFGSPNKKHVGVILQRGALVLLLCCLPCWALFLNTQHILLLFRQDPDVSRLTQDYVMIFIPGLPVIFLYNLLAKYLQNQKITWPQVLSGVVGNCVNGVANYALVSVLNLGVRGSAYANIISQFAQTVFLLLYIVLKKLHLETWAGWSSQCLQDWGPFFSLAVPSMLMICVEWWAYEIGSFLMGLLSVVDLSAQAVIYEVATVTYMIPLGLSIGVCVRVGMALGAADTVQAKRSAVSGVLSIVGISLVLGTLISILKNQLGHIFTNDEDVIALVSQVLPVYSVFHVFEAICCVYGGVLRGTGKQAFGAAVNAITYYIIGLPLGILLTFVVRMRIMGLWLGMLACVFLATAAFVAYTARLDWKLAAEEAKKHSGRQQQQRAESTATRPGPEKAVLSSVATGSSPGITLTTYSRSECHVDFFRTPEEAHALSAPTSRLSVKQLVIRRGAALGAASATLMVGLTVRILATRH

C[C@H](Nc1ncnc(N)c1C#N)c1cc2ncc(Cl)n2nc1-c1ccccc1 [Amdizalisib]
AUC(0-inf) [1, 5]: 13900 ng·h/mL | AUC(0-t) [1, 5]: 13900 ng·h/mL | MRT [1, 5]: 4.6 ± 2.85 h | Vd [1, 5]: 1.68 ± 0.153 L/kg | clearance [1, 5]: 9.12 ± 6.31 mL/min/kg | AUC(0-inf) [1, 6]: 1320 ng·h/mL | AUC(0-t) [1, 6]: 1140 ng·h/mL | Cmax [1, 6]: 115 ± 79.1 ng/mL | MRT [1, 6]: 7.9 ± 5.28 h | AUC(0-inf) [1, 7]: 6130 ng·h/mL | AUC(0-t) [1, 7]: 6040 ng·h/mL | Cmax [1, 7]: 622 ± 257 ng/mL | MRT [1, 7]: 7.84 ± 5.51 h | Tmax [1, 7]: 1.5 ± 0.548 h | half-life [1, 7]: 5.11 ± 4 h | AUC(0-inf) [1, 8]: 52600 ng·h/mL | AUC(0-t) [1, 8]: 52400 ng·h/mL | Cmax [1, 8]: 3350 ng/mL | MRT [1, 8]: 11 ± 6.61 h | half-life [1, 8]: 5.62 ± 2.86 h | half-life ([1]; both sexes, SD rat, fasted, IV 5 mg/kg, read-out: t1/2 (converted)): 3.61 ± 2.01 h | Tmax ([1]; both sexes, SD rat, fasted, PO 1 mg/kg, read-out: Tmax): 2.67 ± 1.75 h | half-life ([1]; both sexes, SD rat, fasted, PO 1 mg/kg, read-out: t1/2 (converted)): 4.94 ± 3.35 h | Tmax ([1]; both sexes, SD rat, fasted, PO 25 mg/kg, read-out: Tmax): 4.17 ± 2.23 h | CL as % of the hepatic blood flow ([1]; both, Sprague-Dawley, rat, iv): 16.6% | Papp A→B at 30 min, 10 µM [2]: 45.7 ×10⁻⁶ cm/s | Papp A→B at 60 min, 5 µM [2]: 38.5 ×10⁻⁶ cm/s | Papp A→B at 60 min, 10 µM [2]: 39.9 ×10⁻⁶ cm/s | Papp A→B at 60 min, 20 µM [2]: 40.9 ×10⁻⁶ cm/s | Papp A→B at 60 min, 40 µM [2]: 36.3 ×10⁻⁶ cm/s | Papp A→B at 60 min, 60 µM [2]: 42.2 ×10⁻⁶ cm/s | Papp A→B at 90 min, 10 µM [2]: 38.9 ×10⁻⁶ cm/s | Papp A→B at 120 min, 10 µM [2]: 36.9 ×10⁻⁶ cm/s | Papp A→B at 150 min, 10 µM [2]: 37.1 ×10⁻⁶ cm/s | Papp B→A at 30 min, 10 µM [2]: 69.5 ×10⁻⁶ cm/s | Papp B→A at 60 min, 5 µM [2]: 50.4 ×10⁻⁶ cm/s | Papp B→A at 60 min, 20 µM [2]: 52.3 ×10⁻⁶ cm/s | Papp B→A at 60 min, 40 µM [2]: 45.4 ×10⁻⁶ cm/s | Papp B→A at 60 min, 60 µM [2]: 47.9 ×10⁻⁶ cm/s | Papp B→A at 60 min, 80 µM [2]: 45.4 ×10⁻⁶ cm/s | Papp B→A at 90 min, 10 µM [2]: 57.1 ×10⁻⁶ cm/s | Papp B→A at 120 min, 10 µM [2]: 56 ×10⁻⁶ cm/s | Papp B→A at 150 min, 10 µM [2]: 55.6 ×10⁻⁶ cm/s | Papp A→B at 60 min, 80 µM ([2]; substrate 80 µM, 60 min): 47.7 ×10⁻⁶ cm/s | Transporter substrate (Caco-2 cell monolayers): Not a substrate of P-gp and BCRP | RB ([3]; dog blood, 1 μM, 0 min): 1.01 | fuB ([3]; dog, 0 min, 1 µM): 10.9% | fup ([3]; dog, 1 µM): 0.109 | RB ([3]; dog, 10 min, 1 µM): 0.874 | fuB ([3]; dog, 10 min, 1 µM): 12.5% | RB ([3]; dog, 60 min, 1 µM): 0.968 | fuB ([3]; dog, 60 min, 1 µM): 11.3% | Enzyme activity Percent of PC (%) (CYP3A4; CYP3A4, donor seven, 1 µM): 4.50% | Enzyme activity Percent of PC (%) (CYP3A4; CYP3A4, donor seven, 3 µM): 4.60% | Enzyme activity Percent of PC (%) (CYP3A4; CYP3A4, donor seven, 10 µM): 19.8% | Enzyme activity Percent of PC (%) (CYP3A4; CYP3A4, donor seven, 20 µM): 5.20% | Enzyme activity Percent of PC (%) (CYP3A4; CYP3A4, donor seven, 30 µM): 4.60% | Enzyme activity Percent of PC (%) (CYP3A4; CYP3A4, donor six, 1 µM): 0.50% | Enzyme activity Percent of PC (%) (CYP3A4; CYP3A4, donor six, 3 µM): 3.60% | Enzyme activity Percent of PC (%) (CYP3A4; CYP3A4, donor six, 10 µM): 19.8% | Enzyme activity Percent of PC (%) (CYP3A4; CYP3A4, donor six, 20 µM): 28.9% | Enzyme activity Percent of PC (%) (CYP3A4; CYP3A4, donor six, 30 µM): 17.7% | Enzyme activity Percent of PC (%) (CYP3A4; CYP3A4, donor two, 1 µM): 0.10% | Enzyme activity Percent of PC (%) (CYP3A4; CYP3A4, donor two, 3 µM): 0.40% | Enzyme activity Percent of PC (%) (CYP3A4; CYP3A4, donor two, 10 µM): 4.40% | Enzyme activity Percent of PC (%) (CYP3A4; CYP3A4, donor two, 20 µM): 1.30% | Enzyme activity Percent of PC (%) (CYP3A4; CYP3A4, donor two, 30 µM): 1.40% | induction of CYP3A4 enzyme activity (CYP3A4; up to 30.0 µM, all three donors): not considered an inducer | IC50 (MATE2-K): 38.2 µM | calculated R value (MATE2-K) (MATE2-K): < 1.1 | Percentage transported (MATE2-K; compound 0.3 μM): 87.1% | Uptake rate (MATE2-K; compound 0.3 μM): 125±3.49 pmol/mg protein/min | Percentage transported (MATE2-K; compound 1 μM): 89.9% | Uptake rate (MATE2-K; compound 1 μM): 129±7.96 pmol/mg protein/min | Percentage transported (MATE2-K; compound 3 μM): 89.0% | Uptake rate (MATE2-K; compound 3 μM): 127±5.50 pmol/mg protein/min | Percentage transported (MATE2-K; compound 10 μM): 89.6% | Uptake rate (MATE2-K; compound 10 μM): 128±4.89 pmol/mg protein/min | Percentage transported (MATE2-K; compound 30 μM): 49.3% | Uptake rate (MATE2-K; compound 30 μM): 73.9±6.49 pmol/mg protein/min | Percentage transported (MATE2-K; compound 100 μM): 29.6% | Uptake rate (MATE2-K; compound 100 μM): 47.4±3.61 pmol/mg protein/min | inhibition at 2 min, 0.3 µM (MATE2-K; human, pH 8): 12.9% | inhibition at 2 min, 1 µM (MATE2-K; human, pH 8): 10.1% | inhibition at 2 min, 3 µM (MATE2-K; human, pH 8): 11% | inhibition at 2 min, 10 µM (MATE2-K; human, pH 8): 10.4% | inhibition at 2 min, 30 µM (MATE2-K; human, pH 8): 50.7% | inhibition at 2 min, 100 µM (MATE2-K; human, pH 8): 70.4% | maximal unbound plasma concentration at steady state ([4]; 30 mg QD in humans): ~52.1 nM | observed human value (Vss/F) ([4]; human): 2.33 L/kg | reported human CLss/F ([4]; human): 3.25 mL/min/kg
